Where “and” joins values, the source holds several entries; their conditions need not be identical. Equal entries are not always repeated. Inconclusive results and toxic doses are left out. The calls were made as follows: active = survival T/C of 150% or more; inactive = T/C below 125% in these data.
Test system: CD2F1 mice, L1210 leukemia ip, survival T/C
Test: NCI In Vivo Anticancer Drug Screen. Data for tumor model L1210 Leukemia (intraperitoneal) in CD2F1 (CDF1) mice
Conditions: higher = longer survival
In short: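 Each value reflects a quotient of treated over vehicle control outcomes in mice with a transplanted tumor.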

[1] = endpoint: mean survival time, dose: 100.0 mg/kg/injection, schedule: Q01DX009 (ip), vehicle: saline
[2] = endpoint: mean survival time, dose: 200.0 mg/kg/injection, schedule: Q01DX009 (ip), vehicle: saline
[3] = endpoint: mean survival time, dose: 100.0 mg/kg/injection, schedule: Q04DX002 (ip), vehicle: saline with Tween-80
[4] = endpoint: mean survival time, dose: 200.0 mg/kg/injection, schedule: Q04DX002 (ip), vehicle: saline with Tween-80
[5] = endpoint: mean survival time, dose: 400.0 mg/kg/injection, schedule: Q04DX002 (ip), vehicle: saline with Tween-80
[6] = endpoint: mean survival time, dose: 100.0 mg/kg/injection, schedule: Q01DX009 (ip), vehicle: saline with Tween-80
[7] = endpoint: mean survival time, dose: 200.0 mg/kg/injection, schedule: Q01DX009 (ip), vehicle: saline with Tween-80
[8] = endpoint: mean survival time, dose: 400.0 mg/kg/injection, schedule: Q01DX009 (ip), vehicle: saline with Tween-80
[9] = endpoint: mean survival time, dose: 100.0 mg/kg/injection, schedule: Q04DX003 (ip), vehicle: saline with Tween-80
[10] = endpoint: mean survival time, dose: 200.0 mg/kg/injection, schedule: Q04DX003 (ip), vehicle: saline with Tween-80
[11] = endpoint: mean survival time, dose: 400.0 mg/kg/injection, schedule: Q04DX003 (ip), vehicle: saline with Tween-80

Measured: T/C

S=c1[nH]c2ccccc2n1CCc1ccncc1
inactive: endpoint: mean survival time, dose: 100.0 mg/kg/injection, schedule: Q#A X016 (ip), vehicle: saline 108 % of control | endpoint: mean survival time, dose: 200.0 mg/kg/injection, schedule: Q#A X016 (ip), vehicle: saline 95 % of control | endpoint: mean survival time, dose: 400.0 mg/kg/injection, schedule: Q## X016 (ip), vehicle: saline 102 % of control | endpoint: mean survival time, dose: 400.0 mg/kg/injection, schedule: Q#A X016 (ip), vehicle: saline 98 % of control | endpoint: mean survival time, dose: 800.0 mg/kg/injection, schedule: Q## X016 (ip), vehicle: saline 100 % of control | endpoint: mean survival time, dose: 1600.0 mg/kg/injection, schedule: Q## X016 (ip), vehicle: saline 100 % of control

CCCOP(=O)(CCl)OCCC
inactive: [1] 95 % of control | [2] 100 % of control | endpoint: mean survival time, dose: 400.0 mg/kg/injection, schedule: Q01DX009 (ip), vehicle: saline 97 % of control

COc1c(C)c2c(c3c1CCC(C)(CCC(=O)O)O3)C(=O)OC2 (stereo unspecified)
inactive: [3] 103 % of control | [4] 108 % of control | [5] 100 % of control

COc1ccc(N2C(N)=NC(N)=NC2(C)C)cc1
inactive: endpoint: mean survival time, dose: 25.0 mg/kg/injection, schedule: Q04DX002 (ip), vehicle: saline 106 % of control | endpoint: mean survival time, dose: 50.0 mg/kg/injection, schedule: Q04DX002 (ip), vehicle: saline 100 % of control

CC(=O)Nc1cccc(/C=C/c2ccc([N+](=O)[O-])cc2)c1
inactive: endpoint: mean survival time, dose: 100.0 mg/kg/injection, schedule: Q01DX001 (ip), vehicle: Klucel (hydroxypropylcellulose) (HPC) 100 % of control | endpoint: mean survival time, dose: 200.0 mg/kg/injection, schedule: Q01DX001 (ip), vehicle: Klucel (hydroxypropylcellulose) (HPC) 103 % of control | endpoint: mean survival time, dose: 400.0 mg/kg/injection, schedule: Q01DX001 (ip), vehicle: Klucel (hydroxypropylcellulose) (HPC) 93 % of control

CC(=O)OC1=NC(C)c2c1cc(OC(C)=O)[nH]c2=O (stereo unspecified)
inactive: endpoint: mean survival time, dose: 6.25 mg/kg/injection, schedule: Q01DX009 (ip), vehicle: Klucel (hydroxypropylcellulose) (HPC) 104 % of control and 107 % of control | endpoint: mean survival time, dose: 12.5 mg/kg/injection, schedule: Q01DX009 (ip), vehicle: Klucel (hydroxypropylcellulose) (HPC) 101 % of control and 106 % of control | endpoint: mean survival time, dose: 25.0 mg/kg/injection, schedule: Q01DX009 (ip), vehicle: Klucel (hydroxypropylcellulose) (HPC) 104 % of control and 110 % of control | endpoint: mean survival time, dose: 50.0 mg/kg/injection, schedule: Q01DX009 (ip), vehicle: Klucel (hydroxypropylcellulose) (HPC) 100 % of control and 101 % of control | endpoint: mean survival time, dose: 100.0 mg/kg/injection, schedule: Q01DX009 (ip), vehicle: Klucel (hydroxypropylcellulose) (HPC) 113 % of control and 102 % of control

CC(=O)CC(C)=NCCN=C(C)CC(C)=O.[Pd]
inactive: endpoint: mean survival time, dose: 3.13 mg/kg/injection, schedule: Q04DX003 (ip), vehicle: distilled water + Tween-80 93 % of control | endpoint: mean survival time, dose: 6.25 mg/kg/injection, schedule: Q04DX003 (ip), vehicle: distilled water + Tween-80 108 % of control | endpoint: mean survival time, dose: 12.5 mg/kg/injection, schedule: Q04DX003 (ip), vehicle: distilled water + Tween-80 100 % of control

COC1C(O)CC(OC2CC(OC3CC(O[C@@H]4C(=O)c5c(cc6cc(OC7CC(OC8CC(O)C(O)C(C)O8)C(O)C(C)O7)c(C)c(O)c6c5O)C[C@H]4[C@H](OC)C(=O)[C@@H](O)[C@@H](C)O)OC(C)C3O)OC(C)C2O)OC1C (stereo partly specified)
inactive: endpoint: mean survival time, dose: 0.09 mg/kg/injection, schedule: Q01DX009 (ip), vehicle: saline 97 % of control | endpoint: mean survival time, dose: 0.18 mg/kg/injection, schedule: Q01DX009 (ip), vehicle: saline 103 % of control | endpoint: mean survival time, dose: 0.37 mg/kg/injection, schedule: Q01DX009 (ip), vehicle: saline 111 % of control | endpoint: mean survival time, dose: 0.75 mg/kg/injection, schedule: Q01DX009 (ip), vehicle: saline 104 % of control | endpoint: mean survival time, dose: 1.5 mg/kg/injection, schedule: Q01DX009 (ip), vehicle: saline 95 % of control | endpoint: mean survival time, dose: 375.0 micrograms/kg/injection, schedule: Q01DX009 (ip), vehicle: saline 110 % of control | endpoint: mean survival time, dose: 750.0 micrograms/kg/injection, schedule: Q01DX009 (ip), vehicle: saline 115 % of control | endpoint: mean survival time, dose: 1500.0 micrograms/kg/injection, schedule: Q01DX009 (ip), vehicle: saline 109 % of control | endpoint: mean survival time, dose: 3000.0 micrograms/kg/injection, schedule: Q01DX009 (ip), vehicle: saline 104 % of control

CCN(CC)C(=S)Nc1ccc(Cl)cc1
inactive: [3] 102 % of control | [4] 102 % of control | [5] 102 % of control

O=C(Nc1ccc2c3c(cccc13)CC2)c1cccc([N+](=O)[O-])c1
inactive: [6] 94 % of control | [7] 95 % of control | [8] 97 % of control

O=C(O)C1=NN(c2ccc(S(=O)(=O)O)cc2)C(=O)C1
inactive: [6] 96 % of control | [7] 92 % of control | [8] 92 % of control

CC(=O)CC(=O)c1ccccc1.CC(=O)CC(=O)c1ccccc1.CC(=O)CC(=O)c1ccccc1.[Cr]
inactive: endpoint: median survival time, dose: 50.0 mg/kg/injection, schedule: Q04DX002 (ip), vehicle: saline with Tween-80 88 % of control | endpoint: median survival time, dose: 100.0 mg/kg/injection, schedule: Q04DX002 (ip), vehicle: saline with Tween-80 88 % of control | endpoint: median survival time, dose: 200.0 mg/kg/injection, schedule: Q04DX002 (ip), vehicle: saline with Tween-80 88 % of control | endpoint: median survival time, dose: 400.0 mg/kg/injection, schedule: Q04DX002 (ip), vehicle: saline with Tween-80 88 % of control

CC1CN(CCC#N)C(=O)S1(=O)=O (stereo unspecified)
inactive: endpoint: mean survival time, dose: 75.0 mg/kg/injection, schedule: Q01DX001 (ip), vehicle: other 108 % of control

O=C(NNc1ccccc1OCc1ccccc1)C(F)(F)F
inactive: [9] 102 % of control | [10] 103 % of control | [11] 103 % of control

O=c1[nH]cnc2c1ncn2C1OC(CO)C(O)C1O (stereo unspecified)
inactive: endpoint: mean survival time, dose: 50.0 mg/kg/injection, schedule: Q01DX001 (ip), vehicle: saline 100 % of control | endpoint: mean survival time, dose: 100.0 mg/kg/injection, schedule: Q01DX001 (ip), vehicle: saline 100 % of control | endpoint: mean survival time, dose: 200.0 mg/kg/injection, schedule: Q01DX001 (ip), vehicle: saline 97 % of control | endpoint: mean survival time, dose: 400.0 mg/kg/injection, schedule: Q01DX001 (ip), vehicle: saline 100 % of control

Cc1c(Br)c(=O)[nH]c2ccccc12
inactive: [6] 96 % of control | [9] 101 % of control | [7] 96 % of control | [10] 98 % of control | [8] 94 % of control | [11] 101 % of control

C=C(NC(=O)C(=C)NC(=O)c1csc(C2=NC3c4csc(n4)C4NC(=O)c5csc(n5)C(C(C)(O)C(C)O)NC(=O)C5CSC(=N5)/C(=C/C)NC(=O)C(C(C)O)NC(=O)c5csc(n5)C3(CC2)NC(=O)C(C)NC(=O)C(=C)NC(=O)C(=C)NC(=O)C(C(C)C)NC2C=Cc3c(C(C)O)cc(nc3C2O)C(=O)OC4C)n1)C(N)=O (stereo unspecified)
inactive: endpoint: mean survival time, dose: 3.12 mg/kg/injection, schedule: Q01DX009 (ip), vehicle: saline 107 % of control | endpoint: mean survival time, dose: 6.25 mg/kg/injection, schedule: Q01DX009 (ip), vehicle: saline 113 % of control | endpoint: mean survival time, dose: 12.5 mg/kg/injection, schedule: Q01DX009 (ip), vehicle: saline 124 % of control and 108 % of control | endpoint: mean survival time, dose: 25.0 mg/kg/injection, schedule: Q01DX009 (ip), vehicle: saline 113 % of control and 115 % of control | endpoint: mean survival time, dose: 50.0 mg/kg/injection, schedule: Q01DX009 (ip), vehicle: saline 120 % of control | [1] 113 % of control and 124 % of control | [2] 124 % of control and 108 % of control

O=C(O)C1C2CC3OC(=O)C1C3C2 (stereo unspecified)
inactive: endpoint: mean survival time, dose: 100.0 mg/kg/injection, schedule: Q04DX003 (ip), vehicle: saline 94 % of control | endpoint: mean survival time, dose: 200.0 mg/kg/injection, schedule: Q04DX003 (ip), vehicle: saline 93 % of control | endpoint: mean survival time, dose: 400.0 mg/kg/injection, schedule: Q04DX003 (ip), vehicle: saline 96 % of control

Reference: PubChem BioAssay AID256 (DTP/NCI, 2004)
